Results published in patent US20220411421A1, “4-AMINO-IMIDAZOQUINOLINE COMPOUNDS AND USE THEREOF” (Prime Reach Trading Limited, priority 2019, published 2022).

What was measured:
Type in all cases: cell-based
[1] = biological target: T1, hTLR7 (Homo sapiens, UniProt Q9NYK1); assay: hTLR7 agonistic activity, HEK-Blue hTLR7 SEAP reporter gene assay; details: for EC50: HEK-Blue hTLR7 cells, SEAP reporter, about 16 hours incubation, read-out: TLR7 EC50
T1 construct: expressed in transfected cells; host or cells: HEK-Blue hTLR7 cells
T1 sequence (Q9NYK1 27-1049): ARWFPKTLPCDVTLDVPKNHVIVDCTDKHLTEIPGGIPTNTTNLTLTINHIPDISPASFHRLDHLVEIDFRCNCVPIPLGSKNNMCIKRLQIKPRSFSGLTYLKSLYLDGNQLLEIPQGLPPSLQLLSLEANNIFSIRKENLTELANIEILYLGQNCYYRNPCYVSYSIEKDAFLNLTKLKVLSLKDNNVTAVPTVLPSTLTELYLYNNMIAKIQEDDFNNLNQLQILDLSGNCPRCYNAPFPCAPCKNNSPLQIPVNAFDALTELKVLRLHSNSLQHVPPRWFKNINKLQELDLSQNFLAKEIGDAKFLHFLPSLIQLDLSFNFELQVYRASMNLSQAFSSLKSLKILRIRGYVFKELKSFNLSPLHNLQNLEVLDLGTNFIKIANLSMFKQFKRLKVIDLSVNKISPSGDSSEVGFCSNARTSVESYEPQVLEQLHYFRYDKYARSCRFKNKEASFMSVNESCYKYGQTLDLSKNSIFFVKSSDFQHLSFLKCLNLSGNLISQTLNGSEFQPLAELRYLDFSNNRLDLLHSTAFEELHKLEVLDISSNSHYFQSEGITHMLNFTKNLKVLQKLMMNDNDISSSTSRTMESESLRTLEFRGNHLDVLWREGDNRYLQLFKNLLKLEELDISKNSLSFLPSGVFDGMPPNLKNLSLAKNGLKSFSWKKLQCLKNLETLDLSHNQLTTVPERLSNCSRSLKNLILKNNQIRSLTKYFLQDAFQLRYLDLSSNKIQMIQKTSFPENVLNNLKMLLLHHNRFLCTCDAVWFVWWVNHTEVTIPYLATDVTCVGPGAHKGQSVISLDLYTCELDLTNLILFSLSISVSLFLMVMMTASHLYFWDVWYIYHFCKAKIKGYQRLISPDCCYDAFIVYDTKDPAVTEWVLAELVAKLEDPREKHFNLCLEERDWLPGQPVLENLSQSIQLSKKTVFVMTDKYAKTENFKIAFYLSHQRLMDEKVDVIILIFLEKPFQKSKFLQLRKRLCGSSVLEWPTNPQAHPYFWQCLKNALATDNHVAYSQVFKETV
Experimental: To analyze the hTLR7 agonistic activity, HEK-Blue hTLR7 cells transfected with secreted embryonic alkaline phosphatase (SEAP) reporter were seeded at 3×10^4 cell/well. […] The SEAP reporter is designed specifically for measuring secreted placental AP (alkaline phosphatase) in conditioned cell culture medium from transfected cells. The HEK-Blue hTLR7 cells served to measure the bioactivity of TLR7 through SEAP upon NF-κB activation following TLR7 stimulation.
(§1) In the SEAP reporter gene assay as described above, water was used as a negative control. […] The dose-response curves were fit with four parameter logistic curves (SigmaPlot, version 9.0). The EC50-values of the test compounds and reference compounds were calculated.

[2] = biological target: T2, hTLR8 (Homo sapiens, UniProt Q9NR97); assay: hTLR8 agonistic activity, HEK-Blue hTLR8 SEAP reporter gene assay; details: for EC50: HEK-Blue hTLR8 cells, SEAP reporter, about 16 hours incubation, read-out: TLR8 EC50; for Ratio of TLR8 EC50 and TLR7 EC50: TLR8 EC50 / TLR7 EC50, HEK-Blue reporter cells
T2 construct: expressed in transfected cells; host or cells: HEK-Blue hTLR8 cells
T2 sequence (Q9NR97 27-1041): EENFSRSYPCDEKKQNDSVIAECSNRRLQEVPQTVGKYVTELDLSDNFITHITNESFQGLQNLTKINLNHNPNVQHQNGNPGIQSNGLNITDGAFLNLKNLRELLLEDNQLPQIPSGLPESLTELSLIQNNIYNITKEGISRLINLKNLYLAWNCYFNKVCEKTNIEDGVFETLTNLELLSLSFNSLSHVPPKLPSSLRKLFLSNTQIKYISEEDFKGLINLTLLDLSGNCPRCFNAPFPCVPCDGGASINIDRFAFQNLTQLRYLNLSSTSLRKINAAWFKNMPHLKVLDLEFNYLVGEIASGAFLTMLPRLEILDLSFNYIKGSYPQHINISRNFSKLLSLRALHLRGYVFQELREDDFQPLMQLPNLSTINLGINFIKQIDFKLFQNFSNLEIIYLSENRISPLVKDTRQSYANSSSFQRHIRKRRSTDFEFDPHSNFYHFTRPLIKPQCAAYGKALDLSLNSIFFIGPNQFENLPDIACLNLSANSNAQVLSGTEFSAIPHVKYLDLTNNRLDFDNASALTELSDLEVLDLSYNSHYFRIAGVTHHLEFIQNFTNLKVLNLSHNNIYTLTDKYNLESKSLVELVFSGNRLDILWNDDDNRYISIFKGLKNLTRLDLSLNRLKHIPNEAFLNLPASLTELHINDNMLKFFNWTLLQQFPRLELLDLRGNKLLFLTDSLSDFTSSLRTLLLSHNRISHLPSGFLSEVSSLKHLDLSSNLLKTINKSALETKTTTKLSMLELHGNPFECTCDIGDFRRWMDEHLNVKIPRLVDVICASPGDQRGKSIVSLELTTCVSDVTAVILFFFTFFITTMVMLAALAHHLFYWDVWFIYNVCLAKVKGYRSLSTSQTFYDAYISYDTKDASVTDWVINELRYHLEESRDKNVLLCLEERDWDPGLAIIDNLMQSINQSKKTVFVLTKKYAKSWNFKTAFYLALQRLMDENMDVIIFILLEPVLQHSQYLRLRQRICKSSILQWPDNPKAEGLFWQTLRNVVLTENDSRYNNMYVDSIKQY
Experimental: To analyze the hTLR8 agonistic activity, HEK-Blue hTLR8 cells transfected with SEAP reporter were seeded at 3×10^4 cell/well. […] The HEK-Blue hTLR8 cells served to measure the bioactivity of TLR8 through the SEAP upon NF-κB activation following TLR8 stimulation.
as §1

[3] = system: human PBMCs; assay: Ex vivo cytokine profile: IP-10 induction from human PBMCs; details: human PBMCs stimulated 24 h, normalized to baseline; FIGS. 3A-C
Experimental: (§2) Three test compounds (Compound Nos. 2, 9, 10) were used to evaluate the effect on cytokine induction.
(§3) Cryopreserved human PBMCs from 4 normal adult volunteers were purchased from EPBMC® (IMMUNOSPOT®). The PBMCs were thawed at 37° C. for 10 minutes and centrifuged at 300×g at room temperature for 5 minutes. The pelleted PBMCs were transferred to RPMI-1640 medium containing 10% FBS, 1% PSA and incubated at 37° C. with 5% CO2.
(§4) The test compounds and reference compounds were respectively dissolved in DMSO and subsequently 25-fold diluted with PBS to make stock solutions at a concentration of 0.1 mM. The preincubated PBMCs were harvested and resuspended in a fresh RPMI-1640 medium containing 10% FBS and 1% PSA. Approximately 1×10^3 PBMCs were added to each well of 96-well plates and stimulated with 0, 20 or 1000 nM of test compounds for 24 h at 37° C. in a 5% CO2 humidified incubator. The culture supernatant was stocked at −20° C. for analysis of TLR7- and TLR8-mediated cytokine induction. PROCARTAPLEX™ Immunoassay (Invitrogen) was performed to quantify human IL-6, IL-12p70, IP-10 in the culture supernatant according to the manufacturer's instructions. Briefly, the culture supernatant samples were thawed on ice and transferred to a microtiter plate. Magnetic bead-coupled antibodies specific to the target cytokines were added to the samples for analyte capturing. The immobilized target cytokine was specifically detected by biotin-conjugated antibodies and then labelled with streptavidin-Phycoerythrin (PE). The PE-labelled magnetic beads were detected and identified by LUMINEX™ 200™ analyzer. Data acquisition, processing and analysis was conducted by using XPONENT™ 3.1 software. The target cytokines were normalized to their baseline cytokine levels and presented as relative cytokines.

[4] = system: human PBMCs; assay: Ex vivo cytokine profile: IL-6 induction from human PBMCs; details: human PBMCs stimulated 24 h, normalized to baseline; FIGS. 1A-C
Experimental: Cryopreserved human PBMCs from 4 normal adult volunteers were purchased from EPBMC® (IMMUNOSPOT®). The PBMCs were thawed at 37° C. for 10 minutes and centrifuged at 300×g at room temperature for 5 minutes.
as §4, with “The preincubated PBMCs were harvested and resuspended in a fresh RPMI-1640 medium containing 10% FBS and 1% PSA.” left out

[5] = system: human PBMCs; assay: Ex vivo cytokine profile: IL-12p70 induction from human PBMCs; details: human PBMCs stimulated 24 h, normalized to baseline; FIGS. 2A-C
Experimental: as §2, §3, §4

| Structure (SMILES) | EC50 [1] [µM] | EC50 [2] [µM] | Ratio of TLR8 EC50 and TLR7 EC50 [2] | TLR7 and TLR8 dual agonistic activity (in words) ([1]; HEK-Blue hTLR7 and hTLR8 reporter cells, summary of Table 1) | relative IP-10 induction [3] | relative IL-6 induction [4] | relative IL-12p70 induction [5] |
| --- | --- | --- | --- | --- | --- | --- | --- |
| CC(C)(O)Cn1c(CCCC(F)(F)F)nc2c(N)nc3ccccc3c21 [Compound 9, 1-(4-amino-2-(4,4,4-trifluorobutyl)-1H-imidazo[4,5-c]quinolin-1-yl)-2-methylpropan-2-ol] | 0.129 ± 0.0109 | 0.965 ± 0.0147 | 7.49 | – | high IP-10 induction activity | low IL-6 induction activity | high IL-12p70 induction activity |
| CCCN(CCC)C(=O)C1=Cc2ccc(-c3ccc(C(=O)N4CCCC4)cc3)cc2N=C(N)C1 [Ref. 3, VTX2337, reference compound] | – | – | – | – | – | low IL-6 induction activity | – |

Continued by falling EC50 [1], values first:

| EC50 [1] [µM] | EC50 [2] [µM] | Ratio of TLR8 EC50 and TLR7 EC50 [2] | TLR7 and TLR8 dual agonistic activity (in words) ([1]; HEK-Blue hTLR7 and hTLR8 reporter cells, summary of Table 1) | Structure (SMILES) | relative IP-10 induction [3] | relative IL-6 induction [4] | relative IL-12p70 induction [5] |
| --- | --- | --- | --- | --- | --- | --- | --- |
| 0.543 ± 0.0294 | 4.746 ± 0.0205 | 8.74 | – | CC(C)(O)Cn1c(CCCCC(F)(F)F)nc2c(N)nc3ccccc3c21 [Compound 10, 1-(4-amino-2-(5,5,5-trifluoropentyl)-1H-imidazo[4,5-c]quinolin-1-yl)-2-methylpropan-2-ol] | high IP-10 induction activity | low IL-6 induction activity | high IL-12p70 induction activity |
| 0.237 ± 0.0074 | 5.299 ± 0.0144 | 22.36 | – | CCCc1nc2c(N)nc3ccccc3c2n1CC(C)(C)O [Compound 1, 1-(4-amino-2-propyl-1H-imidazo[4,5-c]quinolin-1-yl)-2-methylpropan-2-ol] | – | – | – |
| 0.0671 ± 0.0083 | 0.267 ± 0.0135 | 3.98 | the most potent TLR7/8 dual agonist | CCCCCc1nc2c(N)nc3ccccc3c2n1CC(C)(C)O [Compound 2, 1-(4-amino-2-pentyl-1H-imidazo[4,5-c]quinolin-1-yl)-2-methylpropan-2-ol] | high IP-10 induction activity | low IL-6 induction activity | high IL-12p70 induction activity |
